This test concerns mucosal Th1 and Th2 cells. The test is described as follows: Frequencies and cytokine levels of macaque rectal mucosal T cells following SAMT-247 and PMA stimulation. The test is classed as cell-based. The text has this: Additionally, rectal tissue from 9 macaques was used for an in vitro study. The age-matched macaques from this separate study (P204) included 4 animals vaccinated against HIV and 5 naïve animals, all challenged with SHIV. Rectal tissue was obtained post challenge from 7 infected and 2 uninfected animals for the P204 study analysis. Extra cells were available from that collection and were used here for the in vitro study.
Frequencies and cytokine levels of macaque rectal mucosal NK cells and T cells following SAMT-247 and PMA stimulation. NK/ILC and T cell frequencies and cytokine levels were measured in macaque rectal mucosa. Freshly collected rectal biopsies were processed to single cells and cultured in R10 in the presence/or absence of SAMT-247 and/or PMA for 12 hours. Subsequently, cells were stained for live cells with Live/Dead Blue dye (cat. #L34962, 0.5 μl) from Thermofisher; followed by surface staining with the following: BUV737 anti-CD3 (SP34-2; cat. #741872, 5 μl), BV711 anti-CD4 (L200; cat. #563913, 5 μl), BV650 anti-NKp44 (P44-8; cat. #744302, 5 μl), Alexa700 anti-CD20 (2H7; cat. #560631, 5 μl), BV786 anti-CD45 (D058-1283; cat. #563861, 5 μl) from BD Biosciences; APC-H7 anti-CD11b (ICRF44; cat. #47-0118-42, 5 μl), PE-Cy5 anti-CD95 (ICRF44; cat. #15-0959-42, 5 μl) from eBioscience; BV570 anti-CD8 (RPA-T8; cat. #301038, 5 μl), BV605 anti-CCR6 (G034E3; cat. #353420, 5 μl), APC anti-CXCR3 (G025H7; cat. #353708, 5 μl), from Biolegend and PE-Cy7 anti-NKG2A (Z199; cat. #B10246, 5 μl) from Beckman coulter for 30 minutes at room temperature. This was followed by permeabilization with a FOX3-transcription buffer set (cat. #00-5523-00) from eBioscience according to the manufacture's recommendation and subsequently intracellular staining with the following: BV750 anti-TNF-α (MAB11; cat. #566359, 5 μl), BUV395 anti-IFN-γ (B27; cat. #563563, 5 μl), BV510 anti-GranB (GB11; cat. #563388, 5 μl), BV421 anti-IL-10 (JES3-9D7; cat. #564053, 5 μl) from BD Biosciences; PE-Cy5.5 anti-IL-17 (BL168; cat. #512314, 5 μl) from Biolegend; and FITC anti-Perforin (pf-344; cat. #3465-7, 5 μl) from MABTECH for 30 minutes at room temperature. Flow cytometry acquisitions were performed on a FACSymphony A5 and examined using FACSDiva software (BD Biosciences).

Structures are written as SMILES. “Also recorded” adds a separate entry of the source.

As to `CCCCCCCCCCCCCC(=O)O[C@@H]1[C@@H](C)[C@@]2(O)[C@@H](C=C(CO)C[C@]3(O)C(=O)C(C)=C[C@@H]23)[C@@H]2C(C)(C)[C@]12OC(C)=O` [PMA], for the setting “PMA stimulation”, the “overall mucosal Th1 and Th2 cell frequencies” value was “did not change”. In addition, the “Cytokines, Unstim vs PMA Stimulation” value is, setting by setting: (mucosal Th1) “>TNF-α; also recorded: >IL-10; also recorded: >IFN-γ”; (mucosal Th2) “>IFN-γ; also recorded: >TNF-α; also recorded: >IL-10”.

The values are drawn from patent US20240277829A1, “HIV-1 VACCINATION AND SAMT-247 MICROBICIDE TO PREVENT HIV-1 INFECTION” (priority 2021, published 2024).
